Data set [1] in a line: Partition coefficient log Po/w by HPLC (OECD 117). In kind it is physicochemical. To be noted: HPLC method, OECD 117, methanol:water 3:1. As for the experimental part: The analyses were performed with the use of an isocratic flow in methanol: water (3:1) at 1.0 mL min^−1. We injected 20.0 μL and analyses were performed at 254 nm. We used as reference compounds thiourea, phenol, acetophenone, benzoic acid, benzene, toluene, biphenyl, fluoranthene and triphenylamine in order to construct the curve log K × log Po/w. The lipophilicity of alkyl dihydroxybenzoates was determined from their retention times and interpolation in linearity curve log K × log Po/w. We performed the analyses in duplicate.

Data set [2] has as its system ACHN (human renal adenocarcinoma cell line). The data set can be described thus: Cytotoxicity MTT assay, ACHN. It counts as cell-based. As for the experimental part: (§1) This test is based on the reduction of 3-(4,5-dimethyl-2-thiazolyl)-2,5-diphenyl-2-tetrazole bromide by viable cells, with formation of violet insoluble formazan crystals. Five cell lines were used in order to evaluate the cytotoxic effect of the compounds as a whole.
(§2) The cytotoxicity of compounds 4, 16, 28 and copper oxychloride was determined by MTT assay. The cell lines used were HaCaT (human keratinocyte cell line—CLS 300493), Huh-7.5 (human hepatoma cell line—ATCC® PTA-8561), MRC-5 (human lung fibroblast cell line—ATCC CCL-171), VERO (monkey kidney epithelial cell line—ATCC® CCL81) and ACHN (human renal adenocarcinoma cell line—ATCC® CRL1611). The cells were cultured in appropriate medium recommended by the American Type Culture Collection.
(§3) The assay was performed with the concentration of 10^4 cells for both cell lines, distributed in 96-well plates and incubated at 37 °C in a 5% CO2 controlled atmosphere oven for 24 h. After the incubation period, the cells were treated with the compounds with a range of 1.56–200 μmol L^−1 and incubated for 24 h. The supernatant was removed, then 100 μL of 3-(4,5-dimethyl-2-thiazolyl)-2,5-diphenyl-2H-tetrazolium (MTT) salt at 1 mg mL^−1 diluted in DMEM medium (Gibco Life Technologies, Gaithersburg, MD, USA) was added and incubated for 30 min. Subsequently, the MTT was removed, then 100 μL of DMSO under agitation for 5 min at 60 rpm was added. The plates were read at 570 nm in a FLUOstar Omega/BMG LABTECH plate reader, Offenburg, BW, DE. We carried out the experiments in triplicate and three independent events for statistical analysis (GraphPad Software, San Diego, CA, USA). The MTT assay is based on the tetrazolium salt (yellow-colored) reduction to formazan (purple-colored) by metabolically active cells.

A further data set deals with FtsZ from Xcc. The experiment in a line: Inhibition of GTPase activity, continuous substrate regeneration assay. In kind it is biochemical, Xanthomonas citri subsp. citri. To be noted: compounds at MIC values, Xcc-FtsZ 5 μM, 400 μM GTP. How it is done: The cell division process is mediated by the formation of the Z ring, coordinated by GTP hydrolysis activity of FtsZ [33, 34, 35].
The evaluation of the inhibition of GTPase activity was measured by the characterization of the FtsZ from Xcc. This methodology is known as continuous assay of substrate regeneration and consists of the hydrolysis of guanosine triphosphate (GTP) in guanosine diphosphate (GDP) and inorganic phosphate. The GTP is regenerated by the enzyme pyruvate kinase which, in turn, converts the phosphoenol pyruvate (PEP) to pyruvate. The pyruvate produced by this reaction is reduced to lactate by lactate dehydrogenase, using NADH [64].
Reagent stocks were dispersed in Tris 50 buffer (1:1 tris:KCl at pH 7.9). We also prepared two mixtures: Mixture 1—magnesium chloride (MgCl2), pyruvate kinase/lactate dehydrogenase, phosphoenol-pyruvate, NADH and GTP, adding or not the test compounds to MIC values; and mixture 2—Xcc-FtsZ. The assay was performed in a 96-well plate, 75 μL of mixture 1 was pipetted into a well and incubated for 5 min at 30 °C; then 75 μL of mixture 2 was added and the readings started. A Biotek Synergy MX plate reader was used. The readings were performed every 5 s, at the wavelength of 340 nm at 30 °C, under constant stirring.
The total volume of 150 μL presented the following concentrations: 5 mM MgCl2; pyruvate kinase/lactate dehydrogenase 20 U mL^−1; 2 mM phosphoenol-pyruvate; 1 mM NADH; 400 μM GTP; Xcc-FtsZ 5 μM.

Data set [3] has as its system MRC-5 (human lung fibroblast cell line). The data set can be described thus: Cytotoxicity MTT assay, MRC-5. It counts as cell-based. How it is done: as §1, §2, §3
Data set [4] deals with Xcc cells membrane integrity. The data set can be described thus: Cellular membrane permeability of Xcc, Live/Dead BacLight kit. It counts as cell-based, Xanthomonas citri subsp. citri. To be noted: compounds at ¼ MIC, 15 min; nisin as positive control. As for the experimental part:
Membrane integrity was measured by using the commercial assay Live/Dead BacLight® bacterial viability kit (Invitrogen, Carlsbad, CA, USA). We observed cells with intact membrane in fluorescent blue (SYTO 9) and cells with disturbance or affected membrane integrity in red or pink (propidium iodide). The data analyses were plotted as the percentage of cells permeated by propidium iodide (Figure 2).
Phase contrast microscopy was used to observe changes in cell shape and signs of cell division alteration using an objective lens with a magnification of 100×. To evaluate the Xcc cells’ membrane integrity, the BacLight® kit was used. Mixtures of SYTO 9 dyes and propidium iodide (PI). SYTO 9 (blue) can stain nucleic acids in general—with intact or damaged membranes. On the other hand, PI (red) penetrates only the bacteria with damaged membranes, causing overlap in the fluorescence of SYTO 9. Therefore, using a mixture of the dyes, the bacteria with disturbed cell membranes are stained in fluorescent red and the intact cell membranes are stained in fluorescent blue. […] Cellular immobilization was performed on slides containing 1% agarose gel in 0.85% saline buffer. The slides were prepared with 1.0 mL of the agarose solution, which was dispersed in optical microscopy slides and on each slide another slide was placed so that the gel continued like a thin film and was of homogeneous height. The slides were dried at room temperature for approximately 20 min and opened at the time of use, when 10 μL of the cell suspension was deposited in the center and covered with the cover slip. The cells were visualized using the Olympus BX-61 optical microscope equipped with OrcaFlash 2.8 monochrome camera (Hamamatsu, Shizuoka, Japan). Cell Sensation software v11 (Olympus) was used to document and analyze the images.

Data set [5] concerns VERO (monkey kidney epithelial cell line). The data set can be described thus: Cytotoxicity MTT assay, VERO. It counts as cell-based. How it is done:
as §1, §2, §3

Setting [6] is: Homo sapiens, ACHN, 24 h, read-out: IC50 ACHN, MTT, 24 h treatment.
The mark [7] stands for this setting: MTT, 24 h treatment, read-out: IC50 ACHN.
Where [8] appears, read: Homo sapiens, MRC5, 24 h, read-out: IC50 MRC-5, MTT, 24 h treatment.
The mark [9] stands for this setting: MTT, 24 h treatment, read-out: IC50 MRC-5.
The mark [10] stands for this setting: Primates, Vero, 24 h, MTT, 24 h treatment, read-out: IC50 VERO.

“Also recorded” adds a separate entry of the source. Read-outs that look alike come from different tables or passages of the source.

The values that follow come from PMC6213047, “Design of Antibacterial Agents: Alkyl Dihydroxybenzoates against Xanthomonas citri subsp. citri” (International Journal of Molecular Sciences, 2018).

In data set [1], `CCCCCCCOC(=O)c1ccc(O)cc1O` [Compound 4] had a chromatographic logP of 5.1. Moreover, the 50% inhibitory concentration (IC50) was over 100 µM in data set [2] (setting [6]); 153 ± 7.07 µM in data set [2] (setting [7]); over 100 µM in data set [3] (setting [8]); 127 ± 4.59 µM in data set [3] (setting [9]); 111 ± 8.34 µM in data set [5] (MTT, 24 h treatment, read-out: IC50 VERO); over 100 µM in data set [5] (Primates, Vero, 24 h, read-out: IC50 VERO, MTT, 24 h treatment). Besides, the “effect on GTPase activity of FtsZ” value in the data set on FtsZ from Xcc is reported as “inhibition of FtsZ GTPase activity; also recorded: decay in the GTPase activity of FtsZ”. The “percentage of cells permeated by propidium iodide” value (shortened to “percentage of cells permeated”) in data set [4] worked out at 13.9%.

Regarding `CCCCCCCOC(=O)c1cc(O)ccc1O` [Compound 16], the chromatographic logP in data set [1] came to 5. In addition, the half-maximal inhibitory concentration (IC50) was over 100 µM in data set [2] (setting [6]); 140 ± 7.56 µM in data set [2] (setting [7]); over 100 µM in data set [3] (setting [8]); 145 ± 6.29 µM in data set [3] (setting [9]); 93.5 ± 1.93 µM in data set [5] (setting [10]). For the same compound, the “effect on GTPase activity of FtsZ” value in the data set on FtsZ from Xcc is “inhibition of FtsZ GTPase activity; also recorded: decay in the GTPase activity of FtsZ”. For the same compound, the “percentage of cells permeated” value in data set [4] came to 41.3%.

Take `CCCCCCCOC(=O)c1ccc(O)c(O)c1` [Compound 28]: the chromatographic logP in data set [1] was 4.3. Moreover, the concentration for half-maximal inhibition (IC50) in data set [2] (setting [6]) was over 100 µM; in data set [2] (setting [7]), 114 ± 9.97 µM; in data set [3] (setting [8]), over 100 µM; in data set [3] (setting [9]), 129 ± 2.12 µM; in data set [5] (setting [10]), 92.3 ± 9.34 µM. Besides, in the data set with FtsZ from Xcc, the “effect on GTPase activity of FtsZ” value is given as “inhibition of FtsZ GTPase activity; also recorded: decay in the GTPase activity of FtsZ”. The “percentage of cells permeated” value in data set [4] turned out to be 93.8%.
